A word on the DC50: it is the concentration giving 50% degradation. A high value points to a less potent degrader.

These results are taken from patent US20240360146A1, “BRUTON'S TYROSINE KINASE AND MUTANT DEGRADER, COMPOSITION AND APPLICATION THEREOF” (HANGZHOU HEALZEN THERAPEUTICS CO., LTD., priority 2021, published 2024).

In the test the target is T1, BTK (Homo sapiens, UniProt Q06187).
T1 construct: endogenous in cells; host or cells: Mino cells
Description: BTK degradation activity test in Mino cells. It is filed as cell-based. The settings on record: 16 h incubation, Western blot or Elisa. The gist of the method: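 Mino cells treated with a concentration series of compound for 16 h, then lysed; total protein by BCA. BTK quantified by Western blot or ELISA, degradation rate calculated against blank control, and DC50 fitted from the degradation curve.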
(In general: A western blot detects proteins with antibodies after separation by electrophoresis.)

T1 sequence (Q06187 whole entry): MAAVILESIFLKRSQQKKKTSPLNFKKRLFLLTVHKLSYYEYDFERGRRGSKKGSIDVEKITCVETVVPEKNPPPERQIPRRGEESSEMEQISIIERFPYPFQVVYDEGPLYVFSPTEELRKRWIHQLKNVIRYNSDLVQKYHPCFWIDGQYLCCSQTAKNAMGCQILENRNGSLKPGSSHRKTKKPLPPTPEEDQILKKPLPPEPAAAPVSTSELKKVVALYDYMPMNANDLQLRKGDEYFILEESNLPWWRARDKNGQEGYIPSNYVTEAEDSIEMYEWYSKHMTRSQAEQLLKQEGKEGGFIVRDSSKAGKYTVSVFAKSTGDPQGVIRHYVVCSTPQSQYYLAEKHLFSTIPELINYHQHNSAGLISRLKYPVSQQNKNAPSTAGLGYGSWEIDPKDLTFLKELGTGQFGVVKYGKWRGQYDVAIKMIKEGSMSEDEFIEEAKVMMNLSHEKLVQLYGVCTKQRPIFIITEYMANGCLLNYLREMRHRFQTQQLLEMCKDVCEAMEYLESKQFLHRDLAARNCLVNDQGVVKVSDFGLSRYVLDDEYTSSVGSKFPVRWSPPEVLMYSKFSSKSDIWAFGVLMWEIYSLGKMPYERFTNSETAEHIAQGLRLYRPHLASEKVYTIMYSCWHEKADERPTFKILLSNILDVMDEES

For `CCN1CCN(C2CCCN(c3nnc(C(N)=O)c(Nc4ccc(C5CCN(CC6CCN(c7ccc8c(c7)C(=O)N(C7CCC(=O)NC7=O)C8=O)CC6)CC5)cc4)n3)C2)C1=O` (stereo not shown) [Compound 054, 5-((4-(1-((1-(2-(2,6-dioxopiperidin-3-yl)-1,3-dioxoisooctyl-5-yl)piperidin-4-yl)methyl)piperidin-4-yl)phenyl)amino)-3-(3-(3-ethyl-2-oxyimidazolin-1-yl)piperidin-1-yl)-1,2,4-triazin-6-carboxamide], the DC50 was less than 1 nM. On to `CC(C)N1CCN(C2CCCN(c3nnc(C(N)=O)c(Nc4ccc(C5CCN(CC6CCN(c7ccc8c(c7)C(=O)N(C7CCC(=O)NC7=O)C8=O)CC6)CC5)cc4)n3)C2)C1=O` (stereo not shown) [Compound 055, 5-((4-(1-((1-(2-(2,6-dioxopiperidin-3-yl)-1,3-dioxoisoindol-5-yl)piperidin-4-yl)methyl)piperidin-4-yl)phenyl)amino)-3-(3-(3-isopropyl-2-oxoimidazolin-1-yl)piperidin-1-yl)-1,2,4-triazin-6-carboxamide], for which the DC50 was less than 1 nM.

With `NC(=O)c1nnc(N2CCCC(N3CCN(C(F)(F)F)C3=O)C2)nc1Nc1ccc(C2CCN(CC3CCN(c4ccc5c(c4)C(=O)N(C4CCC(=O)NC4=O)C5=O)CC3)CC2)cc1` (stereo not shown) [Compound 056, 5-((4-(1-((1-(2-(2,6-dioxopiperidin-3-yl)-1,3-dioxoisoindol-5-yl)piperidin-4-yl)methyl)piperidin-4-yl)phenyl)amino)-3-(3-(2-oxo-3-(trifluoromethyl)imidazolin-1-yl)piperidin-1-yl)-1,2,4-triazin-6-carboxamide], the DC50 is less than 1 nM. The molecule `NC(=O)c1nnc(N2CCCC(N3CCN(CC(F)(F)F)C3=O)C2)nc1Nc1ccc(C2CCN(CC3CCN(c4ccc5c(c4)C(=O)N(C4CCC(=O)NC4=O)C5=O)CC3)CC2)cc1` (stereo not shown) [Compound 057, 5-((4-(1-((1-(2-(2,6-dioxopiperidin-3-yl)-1,3-dioxoisoindol-5-yl)piperidin-4-yl)methyl)piperidin-4-yl)phenyl)amino)-3-(3-(2-oxo-3-(2,2,2-trifluoroethyl)imidazolin-1-yl)piperidin-1-yl)-1,2,4-triazin-6-carboxamide] showed a DC50 of less than 1 nM.

For `NC(=O)c1nnc(N2CCCC(N3CCN(C4CC4)C3=O)C2)nc1Nc1ccc(C2CCN(CC3CCN(c4ccc5c(c4)C(=O)N(C4CCC(=O)NC4=O)C5=O)CC3)CC2)cc1` (stereo not shown) [Compound 058, 3-(3-(3-cyclopropyl-2-oxoimidazolin-1-yl)piperidin-1-yl)-5-((4-(1-((1-(2-(2,6-dioxopiperidin-3-yl)-1,3-dioxoisoindol-5-yl)piperidin-4-yl)methyl)piperidin-4-yl)phenyl)amino)-1,2,4-triazin-6-carboxamide], the DC50 was less than 1 nM. `NC(=O)c1nnc(N2CCCC(N3CCN(C4CCC4)C3=O)C2)nc1Nc1ccc(C2CCN(CC3CCN(c4ccc5c(c4)C(=O)N(C4CCC(=O)NC4=O)C5=O)CC3)CC2)cc1` (stereo not shown) [Compound 059, 3-(3-(3-cyclobutyl-2-oxoimidazolin-1-yl)piperidin-1-yl)-5-((4-(1-((1-(2-(2,6-dioxopiperidin-3-yl)-1,3-dioxoisoindol-5-yl)piperidin-4-yl)methyl)piperidin-4-yl)phenyl)amino)-1,2,4-triazin-6-carboxamide]: the DC50 was greater than 1 nM. `NC(=O)c1nnc(N2CCCC(N3CCN(C4CCCC4)C3=O)C2)nc1Nc1ccc(C2CCN(CC3CCN(c4ccc5c(c4)C(=O)N(C4CCC(=O)NC4=O)C5=O)CC3)CC2)cc1` (stereo not shown) [Compound 060, 3-(3-(3-cyclopentyl-2-oxoimidazolin-1-yl)piperidin-1-yl)-5-((4-(1-((1-(2-(2,6-dioxopiperidin-3-yl)-1,3-dioxoisoindol-5-yl)piperidin-4-yl)methyl)piperidin-4-yl)phenyl)amino)-1,2,4-triazin-6-carboxamide]: the DC50 is less than 1 nM.

`NC(=O)c1nnc(N2CCCC(N3CCN(C4CCCCC4)C3=O)C2)nc1Nc1ccc(C2CCN(CC3CCN(c4ccc5c(c4)C(=O)N(C4CCC(=O)NC4=O)C5=O)CC3)CC2)cc1` (stereo not shown) [Compound 061, 3-(3-(3-cyclohexyl-2-oxoimidazolin-1-yl)piperidin-1-yl)-5-((4-(1-((1-(2-(2,6-dioxopiperidin-3-yl)-1,3-dioxoisoindol-5-yl)piperidin-4-yl)methyl)piperidin-4-yl)phenyl)amino)-1,2,4-triazin-6-carboxamide]: the DC50 was less than 1 nM. Molecule `NC(=O)c1nnc(N2CCCC(N3CCN(C4COC4)C3=O)C2)nc1Nc1ccc(C2CCN(CC3CCN(c4ccc5c(c4)C(=O)N(C4CCC(=O)NC4=O)C5=O)CC3)CC2)cc1` (stereo not shown) [Compound 062, 5-((4-(1-((1-(2-(2,6-dioxopiperidin-3-yl)-1,3-dioxoisoindol-5-yl)piperidin-4-yl)methyl)piperidin-4-yl)phenyl)amino)-3-(3-(3-(oxetan-3-yl)-2-oxoimidazolin-1-yl)piperidin-1-yl)-1,2,4-triazin-6-carboxamide] yielded a DC50 of less than 1 nM. Consider `NC(=O)c1nnc(N2CCCC(N3CCN(C4CCOCC4)C3=O)C2)nc1Nc1ccc(C2CCN(CC3CCN(c4ccc5c(c4)C(=O)N(C4CCC(=O)NC4=O)C5=O)CC3)CC2)cc1` (stereo not shown) [Compound 063, 5-((4-(1-((1-(2-(2,6-dioxopiperidin-3-yl)-1,3-dioxoisoindol-5-yl)piperidin-4-yl)methyl)piperidin-4-yl)phenyl)amino)-3-(3-(2-oxo-3-(tetrahydro-2H-pyran-4-yl)imidazolin-1-yl)piperidin-1-yl)-1,2,4-triazin-6-carboxamide], for which the DC50 was greater than 1 nM. `NC(=O)c1nnc(N2CCCC(N3CCN(c4ccccc4)C3=O)C2)nc1Nc1ccc(C2CCN(CC3CCN(c4ccc5c(c4)C(=O)N(C4CCC(=O)NC4=O)C5=O)CC3)CC2)cc1` (stereo not shown) [Compound 064, 5-((4-(1-((1-(2-(2,6-dioxopiperidin-3-yl)-1,3-dioxoisoindol-5-yl)piperidin-4-yl)methyl)piperidin-4-yl)phenyl)amino)-3-(3-(2-oxo-3-phenylimidazolin-1-yl)piperidin-1-yl)-1,2,4-triazin-6-carboxamide] yielded a DC50 of less than 1 nM. In turn, `NC(=O)c1nnc(N2CCCC(N3CCN(c4ccccc4F)C3=O)C2)nc1Nc1ccc(C2CCN(CC3CCN(c4ccc5c(c4)C(=O)N(C4CCC(=O)NC4=O)C5=O)CC3)CC2)cc1` (stereo not shown) [Compound 065, 5-((4-(1-((1-(2-(2,6-dioxopiperidin-3-yl)-1,3-dioxoisoindol-5-yl)piperidin-4-yl)methyl)piperidin-4-yl)phenyl)amino)-3-(3-(3-(2-fluorophenyl)-2-oxoimidazolin-1-yl)piperidin-1-yl)-1,2,4-triazin-6-carboxamide] registered a DC50 of less than 1 nM. As for `NC(=O)c1nnc(N2CCCC(N3CCN(c4cccc(F)c4)C3=O)C2)nc1Nc1ccc(C2CCN(CC3CCN(c4ccc5c(c4)C(=O)N(C4CCC(=O)NC4=O)C5=O)CC3)CC2)cc1` (stereo not shown) [Compound 066, 5-((4-(1-((1-(2-(2,6-dioxopiperidin-3-yl)-1,3-dioxoisoindol-5-yl)piperidin-4-yl)methyl)piperidin-4-yl)phenyl)amino)-3-(3-(3-(3-fluorophenyl)-2-oxoimidazolin-1-yl)piperidin-1-yl)-1,2,4-triazin-6-carboxamide], the DC50 is less than 1 nM.
